Assays:
[1] = Lipid nanoparticle size by dynamic light scattering (Malvern Zetasizer Nano ZS); assay type: physicochemical; conditions: LNP: cationic lipid/DSPC/cholesterol/PEG-lipid 50:10:38.5:1.5, hEPO mRNA; Table 3
Protocol: (§1) Briefly, a cationic lipid provided herein, DSPC, cholesterol, and PEG-lipid were solubilized in ethanol at a molar ratio of 50:10:38.5:1.5, and mRNA were diluted in 10 to 50 mM citrate buffer, pH=4. The LNPs were prepared at a total lipid to mRNA weight ratio of approximately 10:1 to 30:1 by mixing the ethanolic lipid solution with the aqueous mRNA solution at a volume ratio of 1:3 using a microfluidic apparatus, total flow rate ranging from 9-30 mL/min. Ethanol were thereby removed and replaced by DPBS using dialysis. Finally, the lipid nanoparticles were filtered through a 0.2 μm sterile filter.
(§2) Lipid nanoparticle size were determined by dynamic light scattering using a Malvern Zetasizer Nano ZS (Malvern UK) using a 173° backscatter detection mode. The encapsulation efficiency of lipid nanoparticles were determined using a Quant-it Ribogreen RNA quantification assay kit (Thermo Fisher Scientific, UK) according to the manufacturer's instructions.

[2] = Encapsulation efficiency of lipid nanoparticles (Quant-it Ribogreen RNA quantification assay); assay type: physicochemical; conditions: LNP encapsulating hEPO mRNA; Table 3
Protocol: as §1, §2

[3] = test system: human erythropoietin (hEPO) mRNA; experiment: Animal study: hEPO expression after tail vein injection of LNPs encapsulating hEPO mRNA (serum ELISA); assay type: in vivo; conditions: hEPO level, female ICR mice, 0.5 mg/kg, 6 hours post administration, class symbols, Table 3
Protocol: Lipid nanoparticles comprising compounds 1-10 encapsulating human erythropoietin (hEPO) mRNA were systemically administered to 6-8 week old female ICR mice (Xipuer-Bikai, Shanghai) at 0.5 mg/kg dose by tail vein injection and mice blood were sampled at specific time points (e.g., 6 hours) post administration. In addition to the aforementioned tested groups, lipid nanoparticles comprising dilinoleylmethyl-4-dimethylaminobutyrate (DLin-MC3-DMA, usually abbreviated to MC3) encapsulating hEPO mRNA were similarly administered at the same dose to age and gender comparative groups of mice as a positive control.
Mice were euthanized by CO2 overdoses after the last sampling time point. Serum were separated from total blood by centrifugation at 5000 g for 10 minutes at 4° C., snap-frozen and stored at −80° C. for analysis. ELSA assay were carried out using a commercial kit (DEP00, R&D systems) according to manufacturer's instructions.
Characteristics of tested lipid nanoparticles, including hEPO expression levels (μg/ml) measured from the tested group are listed the tables below and plotted in FIG. 2.

polydispersity [1]	size nm [1]	Encapsulation Efficiency [2]	SMILES	Expression at 6 h (μg/ml) [3]
0.111	77.12 nm	98.70%	CCCCCCCCC(CCCCCC)CNC(=O)CCCCCN(CCCCCC(=O)OCC(CCCCCC)CCCCCCCC)CCN(CCO)C1CCCCC1 (centres unmarked) [Compound 127]	A (≥2)
0.107	79.73 nm	86.10%	CCCCCCCCC(CCCCCC)CNC(=O)CCCCCN(CCCCCC(=O)OCC(CCCCCC)CCCCCCCC)CCN(CCO)C1CCCCCC1 (centres unmarked) [Compound 128]	A (≥2)
0.131	63.13 nm	91.20%	CCCCCCCCC(CCCCCC)CNC(=O)CCCCCN(CCCCCC(=O)NCC(CCCCCC)CCCCCCCC)CCN(CCO)C1CCCCC1 (centres unmarked) [Compound 129]	A (≥2)
0.097	79.92 nm	92.50%	CCCCCCCCC(CCCCCC)CC(=O)NCCCCCN(CCCCCOC(=O)CC(CCCCCC)CCCCCCCC)CCN(CCO)C1CCCC1 (centres unmarked) [Compound 130]	A (≥2)
0.064	79.11 nm	80.00%	CCCCCCCCC(CCCCCC)CC(=O)NCCCCCN(CCCCCOC(=O)CC(CCCCCC)CCCCCCCC)CCN(CCO)C1CCCCC1 (centres unmarked) [Compound 131]	A (≥2)
0.129	70.33 nm	88.00%	CCCCCCCCC(CCCCCC)CC(=O)NCCCCCN(CCCCCOC(=O)CC(CCCCCC)CCCCCCCC)CCN(CCO)C1CCCCCC1 (centres unmarked) [Compound 132]	A (≥2)
0.063	61.17 nm	94.29%	CCCCCCCCC(CCCCCCCC)CNC(=O)CCCCCN(CCCCCC(=O)OCC(CCCCCCCC)CCCCCCCC)CCN(CCO)C1CCCC1 [Compound 136]	A (≥2)

Continued, compound first:

SMILES	polydispersity [1]	size nm [1]	Encapsulation Efficiency [2]	Expression at 6 h (μg/ml) [3]
CCCCCCCCC(CCCCCC)CNC(=O)CCCCCN(CCCCCC(=O)OCC(CCCCCC)CCCCCCCC)CCN(CCO)C1CCC1 (centres unmarked) [Compound 106]	0.174	76.97 nm	95.14%	A (≥2)
CCCCCCCCC(CCCCCC)CNC(=O)CCCCCN(CCCCCC(=O)NCC(CCCCCC)CCCCCCCC)CCN(CCO)C1CCC1 (centres unmarked) [Compound 107]	0.11	106.9 nm	95.64%	A (≥2)
CCCCCCCCC(CCCCCC)CNC(=O)CCCCCN(CCCCCC(=O)NCC(CCCCCC)CCCCCCCC)CCN(CCO)C1CCCCCC1 (centres unmarked) [Compound 112]	0.111	49.51 nm	95.9%	C (≥0.1 and <1)
CCCCCCCCC(CCCCCC)CNC(=O)CCCCCN(CCCCCC(=O)NCC(CCCCCC)CCCCCCCC)CCN(CCO)C1CC1 (centres unmarked) [Compound 119]	0.06	67.17 nm	93.2%	D (<0.1)
CCCCCCCCC(CCCCCC)CNC(=O)NCCCCN(CCCCNC(=O)NCC(CCCCCC)CCCCCCCC)CCN(CCO)C1CCC1 (centres unmarked) [Compound 121]	0.134	71.02 nm	94.5%	B (≥1 and <2)
CCCCCCCCNC(=O)CCCCCN(CCCCCC(=O)NCCCCCCCC)CCN(CCO)C1CCCCC1 [Compound 123]	0.285	264.9 nm	30.1%	A (≥2)
CCCCCCCCC(CCCCCC)CNC(=O)CCCCCN(CCCCCC(=O)OCC(CCCCCC)CCCCCCCC)CCN(CCO)C1CCCC1 (centres unmarked) [Compound 126]	0.101	78.17 nm	100.10%	A (≥2)

— patent publication US11472766B2, “Lipid nanoparticle composition” (Suzhou Abogen Biosciences Co., Ltd., priority 2020, dated 2022)
